Several values for one entry are separate records, joined by “and”; a condition that tells them apart may be missing. Equal values may be shown once.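 The compound was tested at five concentrations on cells cultured in 96-well plates, with a 48-hour exposure period. GI50 is the concentration that inhibits growth by half.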 Activity calls are given as the source filed them. Rule as the data show it: active = GI50 up to about 1.1 µM and inactive = higher.
How the values were obtained:
Experiment in all cases: NCI-60 cell line screen, 48 h
HOP-92 = tested on: HOP-92
OVCAR-3 = tested on: OVCAR-3
DU-145 = tested on: DU-145
NCI/ADR-RES = tested on: NCI/ADR-RES
Hs-578T = tested on: Hs-578T
MDA-MB-231 = tested on: MDA-MB-231
PC-3 = tested on: PC-3
MDA-MB-435 = tested on: MDA-MB-435
MCF7 = tested on: MCF7
SK-OV-3 = tested on: SK-OV-3
A549 = tested on: A549
TK-10 = tested on: TK-10
UO-31 = tested on: UO-31
MOLT-4 = tested on: MOLT-4
HT-29 = tested on: HT-29
MDA-N = tested on: MDA-N
T47D = tested on: T47D
SNB-78 = tested on: SNB-78
DLD-1 = tested on: DLD-1
KM-20L2 = tested on: KM-20L2

Measured: GI50

Oc1ccc2ccccc2c1/N=N/c1ccccc1
inactive: HOP-92 73.5 µM | OVCAR-3 51.6 µM | DU-145 > 100 µM | NCI/ADR-RES > 100 µM | Hs-578T > 57.3 µM and 35.4 µM | MDA-MB-231 54.5 µM and > 82.4 µM | PC-3 > 87.9 µM | MDA-MB-435 > 100 µM | MCF7 > 100 µM | SK-OV-3 53.3 µM | A549 57.5 µM | TK-10 73.3 µM | UO-31 > 100 µM | MOLT-4 > 100 µM | HT-29 49.5 µM and > 64.7 µM | MDA-N > 100 µM

CCN1CCC(O)(C(C(=O)O)c2ccccc2)CC1 (configuration not stated)
inactive: OVCAR-3 > 100 µM | DU-145 > 100 µM | NCI/ADR-RES > 100 µM | Hs-578T > 100 µM | MDA-MB-231 > 100 µM | PC-3 > 100 µM | MDA-MB-435 > 100 µM | MCF7 > 100 µM | SK-OV-3 > 100 µM | A549 > 100 µM | TK-10 > 100 µM | UO-31 > 100 µM | T47D > 100 µM | HT-29 > 100 µM

COCCCNc1nc(N)c(C#N)c(C#N)c1C#N
inactive: OVCAR-3 > 10 µM | DU-145 > 10 µM | NCI/ADR-RES > 10 µM | Hs-578T > 10 µM | MDA-MB-231 > 10 µM | PC-3 > 10 µM | MDA-MB-435 > 10 µM | MCF7 > 10 µM | SK-OV-3 > 10 µM | A549 > 10 µM | TK-10 > 10 µM | UO-31 > 10 µM | MOLT-4 > 10 µM | T47D > 10 µM | HT-29 > 10 µM | MDA-N > 10 µM

CON(C)c1nc(N(C)OC)nc(N(C)OC)n1
inactive: OVCAR-3 > 10 µM | DU-145 > 10 µM | NCI/ADR-RES > 10 µM | Hs-578T > 10 µM | MDA-MB-231 > 10 µM | PC-3 > 10 µM | MDA-MB-435 > 10 µM | MCF7 > 10 µM | SK-OV-3 > 10 µM | A549 > 10 µM | TK-10 > 10 µM | UO-31 > 10 µM | MOLT-4 > 10 µM | T47D > 10 µM | HT-29 > 10 µM | MDA-N > 10 µM

CC1=C2C(O)C(C(C)C(=O)NC(C)C)CCC2(C)C=CC1=O (configuration not stated)
inactive: HOP-92 > 100 µM | OVCAR-3 > 100 µM | NCI/ADR-RES > 100 µM | SNB-78 > 100 µM | MCF7 > 100 µM | SK-OV-3 > 100 µM | DLD-1 > 100 µM | A549 > 100 µM | UO-31 > 100 µM | MOLT-4 > 100 µM | KM-20L2 > 100 µM | HT-29 > 100 µM

COc1ccc(/C(Cl)=C(\C=O)c2ccc(F)cc2)cc1OC
inactive: HOP-92 6.32 µM | OVCAR-3 22.8 µM | SNB-78 15.3 µM | SK-OV-3 39.4 µM | DLD-1 21.8 µM | TK-10 34.3 µM | UO-31 16.4 µM | MOLT-4 9.91 µM | KM-20L2 16.2 µM | HT-29 15.4 µM

Cc1cc(C)nc(NS(=O)(=O)c2ccc(NNC(=O)c3cccc4c(=O)c5ccccc5[nH]c34)cc2)n1
inactive: HOP-92 11.6 µM | OVCAR-3 37.3 µM | DU-145 > 100 µM | NCI/ADR-RES > 100 µM | Hs-578T 61.7 µM | MDA-MB-231 37.6 µM | PC-3 38.4 µM | MDA-MB-435 61.8 µM | MCF7 > 100 µM | SK-OV-3 55.5 µM | A549 > 100 µM | TK-10 > 100 µM | UO-31 41.6 µM | MOLT-4 49.8 µM | T47D 26.1 µM | HT-29 66.5 µM | MDA-N 75.9 µM

O=C(NC1C=Nc2ccc([N+](=O)[O-])cc2NC1=O)c1cc(Cl)cc([N+](=O)[O-])c1 (configuration not stated)
inactive: HOP-92 > 100 µM | SNB-78 > 100 µM | SK-OV-3 > 100 µM | DLD-1 > 100 µM | A549 > 100 µM | TK-10 > 100 µM | UO-31 > 100 µM | MOLT-4 41.6 µM | KM-20L2 > 100 µM | HT-29 > 100 µM

COc1nc(C#CCC(C)O)nc(OC)n1 (configuration not stated)
inactive: OVCAR-3 19.5 µM | DU-145 22.9 µM | NCI/ADR-RES 21 µM | Hs-578T 25.7 µM | MDA-MB-231 21.2 µM | PC-3 22.6 µM | MDA-MB-435 17.9 µM | MCF7 13.1 µM | SK-OV-3 > 100 µM | A549 23.3 µM | TK-10 24.2 µM | UO-31 18.2 µM | MOLT-4 33.2 µM | T47D 47.8 µM | HT-29 31.3 µM | MDA-N 30.6 µM

Cc1cn(C2CC(N)C(C(=O)NCC(=O)O)O2)c(=O)[nH]c1=O (configuration not stated)
inactive: HOP-92 > 100 µM | OVCAR-3 > 100 µM | DU-145 > 100 µM | NCI/ADR-RES > 100 µM | Hs-578T > 100 µM | MDA-MB-231 > 100 µM | PC-3 > 100 µM | MDA-MB-435 > 100 µM | MCF7 > 100 µM | SK-OV-3 > 100 µM | TK-10 > 100 µM | UO-31 > 100 µM | MOLT-4 > 100 µM | T47D > 100 µM | HT-29 > 100 µM | MDA-N > 100 µM

COC1OC2COC(c3ccccc3)OC2C(OC(=S)c2ccccc2)C1O (configuration not stated)
inactive: HOP-92 > 100 µM | OVCAR-3 > 100 µM | DU-145 > 100 µM | NCI/ADR-RES 15.5 µM | Hs-578T 27.2 µM | MDA-MB-231 14.7 µM | PC-3 4.61 µM | MDA-MB-435 10.9 µM | MCF7 > 100 µM | SK-OV-3 19.2 µM | A549 13.4 µM | TK-10 28.2 µM | UO-31 > 100 µM | MOLT-4 > 100 µM | T47D 1.91 µM | HT-29 > 100 µM | MDA-N > 100 µM

N#CN=C(NCCO)NCCO
inactive: OVCAR-3 > 100 µM | SNB-78 > 100 µM | SK-OV-3 > 100 µM | DLD-1 > 100 µM | A549 > 100 µM | UO-31 > 100 µM | MOLT-4 > 100 µM | KM-20L2 > 100 µM | HT-29 > 100 µM

C=CCc1c(O)c2c(c3oc(=O)cc(C)c13)CC(C)O2 (configuration not stated)
inactive: OVCAR-3 > 100 µM | SNB-78 > 100 µM | SK-OV-3 > 100 µM | DLD-1 48.6 µM | A549 > 100 µM | TK-10 > 100 µM | UO-31 68.9 µM | MOLT-4 56.5 µM | KM-20L2 > 100 µM | HT-29 57.7 µM

N#Cc1c(OCCF)c2ccccc2n2c1nc1ccccc12
inactive: OVCAR-3 67 µM | DU-145 79.8 µM | NCI/ADR-RES 45.3 µM | Hs-578T 17.3 µM | MDA-MB-231 > 100 µM | PC-3 59.2 µM | MDA-MB-435 46.5 µM | MCF7 16.6 µM | SK-OV-3 27 µM | A549 31.6 µM | TK-10 31.1 µM | UO-31 14.2 µM | MOLT-4 27.8 µM | T47D > 100 µM | HT-29 64.3 µM | MDA-N > 100 µM

COC(=O)C(C(=O)C(=O)Nc1nnc(S)[nH]1)c1csc(-n2nc(-c3ccccc3)cc2-c2ccccc2)n1 (configuration not stated)
inactive: HOP-92 44.5 µM | OVCAR-3 > 100 µM | SNB-78 > 100 µM | SK-OV-3 > 100 µM | DLD-1 > 100 µM | A549 > 100 µM | TK-10 > 100 µM | UO-31 5.61 µM | MOLT-4 > 100 µM | KM-20L2 > 100 µM | HT-29 27.5 µM

COc1ccc(NC(=O)CC(=O)N2N=C(N3c4ccccc4Sc4ccccc43)CC2c2ccccc2)cc1 (configuration not stated)
inactive: HOP-92 > 100 µM | OVCAR-3 > 100 µM | DU-145 > 100 µM | NCI/ADR-RES > 100 µM | Hs-578T 39.7 µM | MDA-MB-231 > 100 µM | PC-3 > 100 µM | MDA-MB-435 > 100 µM | MCF7 > 100 µM | SK-OV-3 > 100 µM | A549 > 100 µM | TK-10 > 100 µM | UO-31 > 100 µM | MOLT-4 > 100 µM | T47D > 100 µM | HT-29 > 100 µM
